Data as given in US9226882B2, “Eco-friendly non-aqueous antimicrobial composition comprising tropolone with 1,3-propanediol and/or sorbitan caprylate” (ISP INVESTMENTS INC., priority 2012, dated 2016).
Converted amounts (≈) assume the structure as drawn.

How the values were obtained:
[1] = test system: Candida albicans, (DSM 1386); assay: MIC study on agar, yeast strain; format: cell-based; settings: DSM1386, Candida albican, Malt extract-Agar (3%) pH 5.6, 2 to 3 weeks at 20 to 25° C. in the dark
Description: (§1) Equal amounts of mixtures were poured into four Petri dishes. After cooling, the Petri dishes were inoculated with the respective standard strains. During the experiment, the Petri dishes were kept for 2 to 3 weeks at room temperature of about 20 to 25° C. in the dark. The following two different types of culture media were employed for the present studies: • i. […] The preferred bacterial strains for the present application are Pseudomonas aeruginosa (DSM 1128), Staphylococcus aureus (DSM 799), E. Coli (DSM 1576), Proteus mirabilis (DSM 788) and Burkholderia cepacia (DSM 7288), and the preferred fungal strains are Aspergillus brasiliensis (DSM 1988), Penicillium expansum (DSM 1282), Trichoderma viride (DSM 63064), and the yeast is Candida albicans, (DSM 1386). After 2nd and 3rd weeks macroscopic evaluations were performed, the ratings are as follows: The formulation under examination is considered to be efficient if the following conditions are duly fulfilled i.e. (i) after 2-3 weeks no growth of the tested culture is visible; (ii) with rising concentration of the tested formulation, the germ growth should macroscopically be reduced until it is not visible any more.

[2] = test system: Staphylococcus aureus (DSM 799); assay: MIC study on agar, bacterial strain; format: cell-based; settings: DSM799, Caso-Agar pH 7.3, 2 to 3 weeks at 20 to 25° C. in the dark
Description: as §1

[3] = test system: Pseudomonas aeruginosa (DSM 1128); assay: MIC study on agar, bacterial strain; format: cell-based; settings: DSM1128, Caso-Agar pH 7.3, 2 to 3 weeks at 20 to 25° C. in the dark
Description: as §1

[4] = test system: Proteus mirabilis (DSM 788); assay: MIC study on agar, bacterial strain; format: cell-based; settings: DSM788, Caso-Agar pH 7.3, 2 to 3 weeks at 20 to 25° C. in the dark
Description: as §1

[5] = test system: Burkholderia cepacia (DSM 7288); assay: MIC study on agar, bacterial strain; format: cell-based
Description: as §1

E. Coli (DSM 1576) = assay: MIC study on agar, bacterial strain; format: cell-based, Escherichia coli
Description: as §1

[6] = test system: Penicillium expansum (DSM 1282); assay: MIC study on agar, fungal strain; format: cell-based; settings: DSM1282, Penicillim expansum, Malt extract-Agar (3%) pH 5.6, 2 to 3 weeks at 20 to 25° C. in the dark
Description: as §1

[7] = test system: Aspergillus brasiliensis (DSM 1988); assay: MIC study on agar, fungal strain; format: cell-based
Description: as §1

[8] = test system: Trichoderma viride (DSM 63064); assay: MIC study on agar, fungal strain; format: cell-based
Description: as §1

MIC [1]: 20 µg/mL (≈ 164 µM) | MIC [2]: 250 µg/mL (≈ 2050 µM) | MIC [3]: 500 µg/mL (≈ 4090 µM) | MIC [4]: 250 µg/mL (≈ 2050 µM) | MIC ([5]; DSM7288, Burkholderia cepacia, Caso-Agar pH 7.3, 2 to 3 weeks at 20 to 25° C. in the dark): 250 µg/mL (≈ 2050 µM) | reduction of MIC level of tropolone ([5]; by sorbitan caprylate (Velsan SC), against Burkholderia cepacia): > 90% | MIC (E. Coli (DSM 1576); DSM1576, Escherichia coli, Caso-Agar pH 7.3, 2 to 3 weeks at 20 to 25° C. in the dark): 250 µg/mL (≈ 2050 µM) | reduction of MIC level of tropolone (E. Coli (DSM 1576); in presence of 1,3-propanediol (Zemea), against Escherichia coli): > 50% | MIC [6]: 100 µg/mL (≈ 819 µM) | MIC ([7]; DSM1988, Aspergillus brasiliensis, Malt extract-Agar (3%) pH 5.6, 2 to 3 weeks at 20 to 25° C. in the dark): 50 µg/mL (≈ 409 µM) | reduction of MIC level of tropolone ([7]; by sorbitan caprylate (Velsan SC), against Aspergillus brasiliensis): > 50% | MIC ([8]; DSM63064, Trichoderma viride, Malt extract-Agar (3%) pH 5.6, 2 to 3 weeks at 20 to 25° C. in the dark): 250 µg/mL (≈ 2050 µM) | reduction of MIC level of tropolone ([8]; by sorbitan caprylate (Velsan SC), against Trichoderma viride): > 50%
Structure (SMILES): O=c1cccccc1O [Tropolone, 2-Hydroxy-2,4,6-cycloheptatrien-1-one]
